These results are taken from PMC5325082 (Molecular Pharmacology, 2017).

One assay has as its target T1, rat α9α10W55T receptor (Rattus norvegicus, UniProt P43144+Q9JLB5, W81T).
T1 construct: expressed in transfected cells; host or cells: Xenopus laevis oocytes (cRNA injection)
The assay is described as follows: ACh-evoked currents, two-electrode voltage clamp in Xenopus laevis oocytes. Type of assay: cell-based. The text has this:
(§1) cDNAs encoding Gallus gallus (chick) or Rattus norvegicus (rat) α9 and α10 nAChR subunits were subcloned into a modified pGEMHE vector for expression studies in Xenopus laevis oocytes. Capped cRNAs were in vitro transcribed from linearized plasmid DNA templates using RiboMAX Large Scale RNA Production System (Promega, Madison, WI). Mutant subunits were produced using Quick Change XL II kit (Stratagene, La Jolla, CA). Amino acid sequences of rat and chicken α9, α10, and Torpedo α1 subunits were aligned using ClustalW (EMBL-EBI, Wellcome Genome Campus, Hinxton, Cambridgeshire). Residues were numbered according to the corresponding Torpedo α1 subunit mature protein ([Karlin, 2002]).
(§2) The maintenance of Xenopus laevis and the preparation and cRNA injection of stage V and VI oocytes have been described in detail elsewhere ([Verbitsky et al., 2000]). Typically, oocytes were injected with 50 nl of RNase-free water containing 0.01–1.0 ng of cRNA (at a 1:1 molar ratio when pairwise combined) and maintained in Barth’s solution at 18°C. Electrophysiological recordings were performed 2–6 days after cRNA injection under two-electrode voltage clamp with an Oocyte Clamp OC-725B or C amplifier (Warner Instruments Corp., Hamden, CT). Recordings were filtered at a corner frequency of 10 Hz using a 900BT Tunable Active Filter (Frequency Devices Inc., Ottawa, IL). Data acquisition was performed using a Patch Panel PP-50 LAB/1 interface (Warner Instruments Corp.) at a rate of 10 points per second. Both voltage and current electrodes were filled with 3 M KCl and had resistances of ∼1 MΩ. Data were analyzed using Clampfit from the pClamp 6.1 software (Molecular Devices, Sunnyvale, CA). During electrophysiological recordings, oocytes were continuously superfused (∼15 ml/min) with normal frog saline composed of: 115 mM NaCl, 2.5 mM KCl, 1.8 mM CaCl2, and 10 mM HEPES buffer, pH 7.2. […] Unless otherwise indicated, the membrane potential was clamped to −70 mV. To minimize activation of the endogenous Ca^2+ sensitive chloride current ([Elgoyhen et al., 2001]), all experiments were performed in oocytes incubated with the Ca^2+ chelator 1,2-bis(2-aminophenoxy)ethane-N,N,N′,N′-tetraacetic acid (acetoxymethyl ester) (100 µM) for 3 hours before electrophysiological recordings.
(§3) Concentration-response curves were normalized to the maximal agonist response in each oocyte. The mean and S.E.M. values of the responses are represented. […] Data were analyzed using Clampfit from the pClamp 6.1 software. […]

In assay [1] the target is rat α9α10 W55T/R117M receptor (Rattus norvegicus, UniProt P43144+Q9JLB5, R143M/W81T). The assay is described as above. In kind it is cell-based.
Source text: as §1, §2, §3

The target of a further assay is rat α9α10R117M receptor (Rattus norvegicus, UniProt P43144+Q9JLB5, R143M). The description is as above. Type of assay: cell-based.
Source text: as §1, §2, §3

Another assay deals with rat α9W55Tα10 receptor (Rattus norvegicus, UniProt P43144+Q9JLB5, W82T). The description is as above. In kind it is cell-based.
Source text: as §1, §2
(§4) Concentration-response curves were normalized to the maximal agonist response in each oocyte. The mean and S.E.M. values of the responses are represented. Agonist concentration-response curves were iteratively fitted, using Prism 5 software (GraphPad Software Inc., La Jolla, CA), with the equation: I/Imax = A^nH/(A^nH + EC50^nH), where I is the peak inward current evoked by the agonist at concentration A; Imax is the current evoked by the concentration of the agonist eliciting a maximal response; EC50 is the concentration of the agonist inducing a half-maximal current response; and nH is the Hill coefficient. Data were analyzed using Clampfit from the pClamp 6.1 software.

A further assay deals with rat α9α10Y190T receptor (Rattus norvegicus, UniProt P43144+Q9JLB5, Y216T). The assay is described as above. In kind it is cell-based.
Source text: as §1, §2, §4

For assay [2], the target named is chicken α9α10 nAChR (wild type) (Gallus gallus, UniProt Q9I8C7+Q9PTS8). The experiment in a line: ACh-evoked currents, two-electrode voltage clamp in Xenopus laevis oocytes, wild-type receptor. In kind it is cell-based.
Source text: as §1
(§5) The maintenance of Xenopus laevis and the preparation and cRNA injection of stage V and VI oocytes have been described in detail elsewhere ([Verbitsky et al., 2000]). Typically, oocytes were injected with 50 nl of RNase-free water containing 0.01–1.0 ng of cRNA (at a 1:1 molar ratio when pairwise combined) and maintained in Barth’s solution at 18°C. […] Data were analyzed using Clampfit from the pClamp 6.1 software (Molecular Devices, Sunnyvale, CA). […]
(§6) Concentration-response curves were normalized to the maximal agonist response in each oocyte. […] Data were analyzed using Clampfit from the pClamp 6.1 software.
(Two-electrode voltage clamp holds a large cell at a set potential and records current.)

In assay [3] the target is rat α9α10 nAChR (wild type) (Rattus norvegicus, UniProt P43144+Q9JLB5). The description is as above. Type of assay: cell-based. Particulars: −70 mV.
Source text: as §1, §5, §6

The target of assay [4] is chicken α9W55Tα10 receptor (Gallus gallus, UniProt Q9I8C7+Q9PTS8, W84T). The assay is described as follows: ACh-evoked currents, two-electrode voltage clamp in Xenopus laevis oocytes. In kind it is cell-based.
Source text: as §1
(§7) The maintenance of Xenopus laevis and the preparation and cRNA injection of stage V and VI oocytes have been described in detail elsewhere ([Verbitsky et al., 2000]). Typically, oocytes were injected with 50 nl of RNase-free water containing 0.01–1.0 ng of cRNA (at a 1:1 molar ratio when pairwise combined) and maintained in Barth’s solution at 18°C. Electrophysiological recordings were performed 2–6 days after cRNA injection under two-electrode voltage clamp with an Oocyte Clamp OC-725B or C amplifier (Warner Instruments Corp., Hamden, CT). Recordings were filtered at a corner frequency of 10 Hz using a 900BT Tunable Active Filter (Frequency Devices Inc., Ottawa, IL). Data acquisition was performed using a Patch Panel PP-50 LAB/1 interface (Warner Instruments Corp.) at a rate of 10 points per second. Both voltage and current electrodes were filled with 3 M KCl and had resistances of ∼1 MΩ. Data were analyzed using Clampfit from the pClamp 6.1 software (Molecular Devices, Sunnyvale, CA). During electrophysiological recordings, oocytes were continuously superfused (∼15 ml/min) with normal frog saline composed of: 115 mM NaCl, 2.5 mM KCl, 1.8 mM CaCl2, and 10 mM HEPES buffer, pH 7.2. ACh was added to the perfusion solution for application. Unless otherwise indicated, the membrane potential was clamped to −70 mV. To minimize activation of the endogenous Ca^2+ sensitive chloride current ([Elgoyhen et al., 2001]), all experiments were performed in oocytes incubated with the Ca^2+ chelator 1,2-bis(2-aminophenoxy)ethane-N,N,N′,N′-tetraacetic acid (acetoxymethyl ester) (100 µM) for 3 hours before electrophysiological recordings.
as §4

The target of assay [5] is T2, rat double-mutant α9Y190Tα10Y190T receptors (Rattus norvegicus, UniProt P43144+Q9JLB5, Y216T/Y217T).
T2 construct: expressed in transfected cells; host or cells: Xenopus laevis oocytes (cRNA injection)
The assay is described as above. Type of assay: cell-based. Particulars: 1 or 30 mM ACh, n = 8.
Source text: as §1, §7, §4

For assay [6], the target named is chicken α9α10W55T receptor (Gallus gallus, UniProt Q9I8C7+Q9PTS8, W83T). Described as above. In kind it is cell-based.
Source text: as §1, §7, §4

Assay [7] has as its system Aplysia californica AChBP, CC mutant. Particulars: does not abolish ACh binding; ref Hansen and Taylor, 2007; cited from earlier work.

As usually defined, the EC50 is the concentration that produces a half-maximal response. Low readings indicate greater potency, high ones weaker potency. For `CC(=O)OCC[N+](C)(C)C` [ACh, acetylcholine], the “Imax (maximal evoked current)” value on rat α9α10W55T receptor was determined as 177 ± 81 nA; in [1] (rat α9α10 W55T/R117M, oocytes), 245 ± 83 nA; at rat α9α10R117M receptor it was 107 ± 38 nA; at rat α9W55Tα10 receptor it was 42 ± 4 nA; on rat α9α10Y190T receptor it was 336 ± 91 nA; in [2], 100 ± 12 nA. In addition, the “Imax (maximal evoked current)” value in assay [3] stood at 298 ± 48 nA; in assay [4], 59 ± 8 nA; in assay [6] it was 159 ± 32 nA. The “Free energy coupling, double-mutant cycle” value in [1] (α10W55 and α10R117) was -1.47 kcal/mol. The results for the EC50 in assay [2], in [4] and in [6] were 16 ± 2 µM, 357 ± 75 µM and 334 ± 13 µM, respectively. Further, in [5], the “Response to ACh” value is listed as “failed to respond”. Moreover, the “Decrease in affinity on mutation of the CC” value in [7] is given as 10 fold.
